The values that follow are results of earlier work, collected in US20170280761A1, “METHOD TO CONCENTRATE APOA-1 MIMETIC PEPTIDES TRANSGENICALLY EXPRESSED IN PLANTS” (The Regents of the University of California, priority 2014, published 2017).

For data set [1], the system named is epithelial ovarian cancer cells.
Data set [2] concerns Hypoxia-inducible factor-1 (HIF-1). The note with it: addition of the 4F peptide.
The test system of the next data set is colon cancer. The note with it: 4F added to mouse chow.
Data set [3] deals with T1, scavenger receptor A (SR-A) (Homo sapiens, UniProt P21757).
T1 sequence (P21757 1-451): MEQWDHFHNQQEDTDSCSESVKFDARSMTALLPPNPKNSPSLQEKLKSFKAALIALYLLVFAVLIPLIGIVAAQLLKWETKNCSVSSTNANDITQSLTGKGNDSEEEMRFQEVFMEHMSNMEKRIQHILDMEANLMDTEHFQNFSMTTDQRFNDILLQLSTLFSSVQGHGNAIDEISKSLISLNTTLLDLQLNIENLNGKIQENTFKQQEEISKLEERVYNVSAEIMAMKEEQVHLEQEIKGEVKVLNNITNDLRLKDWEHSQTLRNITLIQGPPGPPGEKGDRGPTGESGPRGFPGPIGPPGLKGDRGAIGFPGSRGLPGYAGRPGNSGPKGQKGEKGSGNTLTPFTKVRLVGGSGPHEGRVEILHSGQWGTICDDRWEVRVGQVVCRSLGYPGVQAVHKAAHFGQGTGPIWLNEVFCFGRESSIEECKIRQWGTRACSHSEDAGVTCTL

The subject of another data set is C57BL/6J-Apc Min/+ mice. The settings on record: 4F in mouse chow.
The next data set has as its system ovarian cancer. The settings on record: for levels of lysophosphatidic acid (LPA) / tumor growth: administered either orally or by injection.
The subject of the next data set is tumor invasiveness. The settings on record: administration of the 4F peptide.
The conditions of data set [4]: mouse, in vivo.

Consider “DWFKAFYDKVAEKFKEAF (Synthetic recombinantly expressed peptide) [4F]”, for which, in data set [1], the “antioxidant enzyme manganese superoxide dismutase (MnSOD)” value is “upregulated”; the “proliferation and ability to form tumors” value is reported as “inhibited”. In addition, the “HIF-1 alpha induced in vitro by LPA” value in data set [2] is reported as “decreased”. In the data set on colon cancer, the “plasma LPA levels” value is listed as “decreased”, the tumor angiogenesis result was “decreased” and the tumor burden entry is on record as “decreased”. Also, the “inhibition of SR-A” value in data set [3] was “potent inhibitor”. Further, in the data set with C57BL/6J-Apc Min/+ mice, the LPA levels entry is given as “decreased”; the “number and size of tumors in the intestinal tract” value is given as “reduced”. In the data set on ovarian cancer, the “levels of lysophosphatidic acid (LPA)” value is reported as “decreased” and the tumor growth result is reported as “decreased”. Also, the “expression of HIF-1 alpha in mouse ovarian tumor tissues” value in the data set on ovarian cancer (administration of the 4F peptide) is listed as “markedly decreased”. Also, in the data set with tumor invasiveness, the tumor invasiveness result was “inhibited”.
Regarding “DWLKAFYDKFFEKFKEFF (Synthetic recombinantly expressed peptide) [6F]”, in data set [4], the “amount of intact 6F peptide found in the small intestine” value is reported as 15.6±7.4 µg 6F per 200 mg small intestine, the “intact 6F peptide in the plasma” value was “not in the plasma” and the “intact 6F peptide in the small intestine” value is “found”.
As to “DWLKAFYDKVFEKFKEFF (Synthetic recombinantly expressed peptide) [5F]”, in the data set with ovarian cancer, the “levels of lysophosphatidic acid (LPA)” value is “decreased” and the tumor growth result is “decreased”.
